Our source for the Activity and inhibition values is ChEMBL document CHEMBL2016508, “Synthesis and biological activity of bi/tricyclic azasugars fused thiazolidin-4-one and thiazinan-4-one by microwave-assisted tandem Staudinger/aza-Wittig/cyclization” (2012).

The subject of assay [1] is T-cell. As to the kind of experiment: Effect on proliferation of Balb/C mouse T cells at 50 uM after 72 hrs by MTT assay. Type of assay: functional, cell-based.
For assay [2], the system named is T-cell. As to the kind of experiment: Effect on proliferation of Balb/C mouse T cells at 5 uM after 72 hrs by MTT assay. Type of assay: functional, cell-based.
Assay [3] concerns YAC-1. The assay can be described thus: Immunopotentiating activity in Balb/C mouse NK cells assessed as induction of killing activity against YAC-1 cells at 50 uM after 4 hrs by MTT assay. Type of assay: functional.
Another assay relates to Bacillaceae. The assay can be described thus: Inhibition of Bacillaceae alpha-amylase using starch as substrate at 100 uM preincubated for 10 mins prior substrate addition measured after 10 mins by UV-Vis spectrophotometry.
For the next assay, the system named is Saccharomyces cerevisiae. As to the kind of experiment: Inhibition of yeast alpha-glucosidase using PNPG as substrate at 100 uM preincubated for 10 mins prior substrate addition measured after 10 mins by UV-Vis spectrophotometry.
The subject of a further assay is Prunus dulcis. As to the kind of experiment: Inhibition of almonds beta-glucosidase using D-(-)salicin as substrate at 100 uM preincubated for 10 mins prior substrate addition measured after 10 mins by UV-Vis spectrophotometry.
The subject of assay [4] is YAC-1. The assay can be described thus: Immunopotentiating activity in Balb/C mouse NK cells assessed as induction of killing activity against YAC-1 cells at 5 uM after 4 hrs by MTT assay. Type of assay: functional.

Calls of active or inactive are those of the source. The rule behind the calls is not given here.

As for `O=C1CCS[C@H]2[C@H](O)[C@H](O)[C@H](O)CN12`, the outcome with T-cell [1], with T-cell [2], in the assay on YAC-1 [3] and with YAC-1 [4] was inactive. Further, the inhibition result with Bacillaceae and in the assay with Saccharomyces cerevisiae was “inactive” throughout. This compound also came in with an inhibition with Prunus dulcis of 18%.
As to `O=C1CS[C@H]2[C@@H](O)[C@@H](O)[C@H](O)CN12`, the outcome with T-cell [1] and in the assay with T-cell [2] was inactive. Further, the figures for the Activity with YAC-1 [3] and with YAC-1 [4] were 93% and 72%, respectively. Moreover, the inhibition result in the assay on Bacillaceae and in the assay on Saccharomyces cerevisiae was “inactive” throughout. The compound also yielded an inhibition in the assay with Prunus dulcis of 19%.
In the case of `O=C1c2cccnc2S[C@@H]2[C@@H](O)[C@@H](O)[C@H](O)CN12`, the outcome in the assay with T-cell [1] and in the assay with T-cell [2] was inactive. The Activity in the assay with YAC-1 [3] came out at 81%; with YAC-1 [4] it was 55%. Further, the inhibition entry in the assay with Bacillaceae and with Saccharomyces cerevisiae was “inactive” in each case. Besides, the inhibition in the assay with Prunus dulcis was 19%.
`O=C1CS[C@@H]2[C@H](O)[C@H](O)[C@H](O)CN12`: the outcome with T-cell [1] and with T-cell [2] was inactive. The Activity with YAC-1 [3] worked out at 87%; with YAC-1 [4] it was 70%. For the same compound, the inhibition result with Bacillaceae, in the assay with Saccharomyces cerevisiae and with Prunus dulcis was “inactive” throughout.
On to `O=C1c2ccccc2S[C@H]2[C@@H](O)[C@@H](O)[C@H](O)CN12`, for which the outcome with T-cell [1] and with T-cell [2] was inactive. Besides, the Activity in the assay on YAC-1 [3] was determined as 73%; in the assay on YAC-1 [4], 46%. Moreover, the inhibition result in the assay on Bacillaceae, in the assay with Saccharomyces cerevisiae and in the assay on Prunus dulcis was “inactive” throughout.
`O=C1CS[C@H]2[C@H](O)[C@H](O)[C@H](O)CN12`: the result with T-cell [1], with T-cell [2], with YAC-1 [3] and in the assay with YAC-1 [4] was inactive. The inhibition entry with Bacillaceae and with Saccharomyces cerevisiae was “inactive” throughout. Besides, the inhibition in the assay with Prunus dulcis was 23%.
Consider `O=C1c2cccnc2S[C@@H]2[C@H](O)[C@H](O)[C@H](O)CN12`, for which the result in the assay with T-cell [1] and in the assay with T-cell [2] was inactive. Besides, the figures for the Activity in the assay on YAC-1 [3] and with YAC-1 [4] were 71% and 45%, respectively. Besides, the inhibition entry in the assay with Bacillaceae, in the assay with Saccharomyces cerevisiae and with Prunus dulcis was “inactive” in each case.
As to `O=C1CCS[C@@H]2[C@H](O)[C@H](O)[C@H](O)CN12`, the outcome with T-cell [1], in the assay with T-cell [2], in the assay with YAC-1 [3] and with YAC-1 [4] was inactive. The inhibition entry in the assay with Bacillaceae, in the assay with Saccharomyces cerevisiae and in the assay with Prunus dulcis was “inactive” throughout.
`O=C1c2ccccc2S[C@@H]2[C@H](O)[C@H](O)[C@H](O)CN12`: the outcome with T-cell [1], in the assay with T-cell [2], in the assay on YAC-1 [3] and with YAC-1 [4] was inactive. For the same compound, the inhibition result in the assay on Bacillaceae, in the assay on Saccharomyces cerevisiae and in the assay with Prunus dulcis was “inactive” in each case.
For `O=C1CCS[C@H]2[C@@H](O)[C@@H](O)[C@H](O)CN12`, the result in the assay with T-cell [1] and with T-cell [2] was inactive. In addition, the Activity in the assay on YAC-1 [3] turned out to be 45%; in the assay with YAC-1 [4], 69%. The inhibition result with Bacillaceae, with Saccharomyces cerevisiae and with Prunus dulcis was “inactive” throughout.
Turning to `O=C1CCS[C@@H]2[C@@H](O)[C@@H](O)[C@H](O)CN12`, the result in the assay with T-cell [1], in the assay with T-cell [2], in the assay with YAC-1 [3] and with YAC-1 [4] was inactive. The inhibition result in the assay on Bacillaceae, with Saccharomyces cerevisiae and with Prunus dulcis was “inactive” in each case.
Turning to `O=C1c2cccnc2S[C@H]2[C@H](O)[C@H](O)[C@H](O)CN12`, the result with T-cell [1], with T-cell [2], in the assay with YAC-1 [3] and with YAC-1 [4] was inactive. Further, the inhibition entry with Bacillaceae, in the assay on Saccharomyces cerevisiae and in the assay on Prunus dulcis was “inactive” throughout.
Consider `O=C1c2ccccc2S[C@@H]2[C@@H](O)[C@@H](O)[C@H](O)CN12`, for which the outcome in the assay on T-cell [1], with T-cell [2], in the assay with YAC-1 [3] and with YAC-1 [4] was inactive. Moreover, the inhibition entry in the assay on Bacillaceae, in the assay with Saccharomyces cerevisiae and in the assay on Prunus dulcis was “inactive” throughout.
For `O=C1CS[C@@H]2[C@@H](O)[C@@H](O)[C@H](O)CN12`, the result in the assay with T-cell [1], in the assay on T-cell [2], with YAC-1 [3] and with YAC-1 [4] was inactive. Besides, the inhibition result in the assay with Bacillaceae, with Saccharomyces cerevisiae and with Prunus dulcis was “inactive” throughout.
In the case of `O=C1c2ccccc2S[C@H]2[C@H](O)[C@H](O)[C@H](O)CN12`, the result in the assay on T-cell [1], in the assay on T-cell [2], with YAC-1 [3] and with YAC-1 [4] was inactive. Further, the inhibition entry with Bacillaceae, in the assay on Saccharomyces cerevisiae and in the assay on Prunus dulcis was “inactive” throughout.
For `O=C1c2cccnc2S[C@H]2[C@@H](O)[C@@H](O)[C@H](O)CN12`, the outcome in the assay on T-cell [1] and with T-cell [2] was inactive. Also, the Activity in the assay with YAC-1 [3] was 97%; in the assay on YAC-1 [4], 67%. For the same compound, the inhibition entry with Bacillaceae and in the assay on Saccharomyces cerevisiae was “inactive” throughout. The compound further came in with an inhibition in the assay on Prunus dulcis of 35%.
